Several values for one entry are separate records, joined by “and”; a condition that tells them apart may be missing. Equal values may be shown once.
How the values were obtained:
[1] = Molar enthalpy of transition or fusion; details: Crystal; DSC
[2] = Crystal; for vapor or sublimation pressure: Calculated from knudsen effusion weight loss; for Normal melting temperature: DTA

O=C1c2ccccc2Cc2ccccc21 [9(10H)-anthracenone]
Details	Molar enthalpy of transition or fusion [kcal/mol]	Normal melting temperature [°C]
[1]	5.35	–
[2]	–	156.4

[2]
Details	vapor or sublimation pressure
346.15 K	0.000131 kPa and 0.000128 kPa
348.14 K	0.000162 kPa and 0.000156 kPa
351.13 K	0.000223 kPa and 0.000217 kPa and 0.000221 kPa
354.18 K	0.000299 kPa and 0.00029 kPa and 0.000307 kPa
355.68 K	0.000359 kPa and 0.000354 kPa and 0.000348 kPa
357.19 K	0.00041 kPa and 0.000405 kPa and 0.000396 kPa
360.15 K	0.000558 kPa and 0.000553 kPa and 0.000533 kPa
363.14 K	0.000744 kPa and 0.000727 kPa and 0.0007 kPa
365.14 K	0.000895 kPa and 0.000879 kPa and 0.00084 kPa

O=c1c2ccccc2oc2ccccc12 [9H-xanthen-9-one]
Details	Molar enthalpy of transition or fusion [kcal/mol]	Normal melting temperature [°C]
[1]	6.36	–
[2]	–	175.2

[2]
Details	vapor or sublimation pressure
342.22 K	0.00013 kPa and 0.000132 kPa and 0.000129 kPa
344.15 K	0.000163 kPa and 0.00016 kPa and 0.000157 kPa
346.26 K	0.000197 kPa and 0.000201 kPa and 0.000196 kPa
348.26 K	0.000238 kPa and 0.00024 kPa and 0.000245 kPa
350.26 K	0.000301 kPa and 0.000303 kPa and 0.000295 kPa
354.2 K	0.000451 kPa and 0.000452 kPa and 0.000434 kPa
356.21 K	0.000553 kPa and 0.000546 kPa and 0.000529 kPa
358.26 K	0.000674 kPa and 0.000667 kPa and 0.000658 kPa
360.15 K	0.000814 kPa and 0.000799 kPa and 0.000781 kPa
362.22 K	0.000989 kPa and 0.000954 kPa

O=C1c2ccccc2C(=O)c2ccccc21 [9,10(9H,10H)-anthracenedione]
Details	Molar enthalpy of transition or fusion [kcal/mol]	Normal melting temperature [°C]
[1]	8.68	–
[2]	–	283.6

[2]
Details	vapor or sublimation pressure
377.06 K	0.000173 kPa and 0.000164 kPa
379.08 K	0.00021 kPa and 0.0002 kPa
381.26 K	0.00025 kPa and 0.000246 kPa
383.26 K	0.000299 kPa and 0.000302 kPa
385.26 K	0.000359 kPa and 0.000352 kPa
391.26 K	0.000618 kPa
393.08 K	0.000743 kPa and 0.000716 kPa
395.03 K	0.000886 kPa

c1ccc2c(c1)Sc1ccccc1S2 [thianthrene]
[2]
Details	vapor or sublimation pressure
344.27 K	0.000161 kPa and 0.000163 kPa
346.12 K	0.0002 kPa and 0.000198 kPa and 0.000197 kPa
348.1 K	0.000246 kPa and 0.000243 kPa and 0.000239 kPa
350.26 K	0.000301 kPa and 0.000299 kPa
352.11 K	0.00037 kPa and 0.000368 kPa and 0.000362 kPa
354.1 K	0.000447 kPa and 0.000446 kPa and 0.000439 kPa
356.26 K	0.000549 kPa and 0.00056 kPa and 0.000555 kPa
358.1 K	0.00068 kPa and 0.000687 kPa and 0.000669 kPa
362.05 K	0.000992 kPa and 0.000995 kPa and 0.000973 kPa
364.06 K	0.001197 kPa and 0.001196 kPa and 0.00117 kPa

O=c1c2ccccc2sc2ccccc12 [thioxanthone]
Details	Molar enthalpy of transition or fusion [kcal/mol]	Normal melting temperature [°C]
[1]	6.79	–
[2]	–	213.5

[2]
Details	vapor or sublimation pressure
369.12 K	0.000187 kPa and 0.000186 kPa and 0.000178 kPa
371.2 K	0.000232 kPa and 0.000226 kPa and 0.000222 kPa
373.26 K	0.000284 kPa and 0.000274 kPa and 0.00027 kPa
375.12 K	0.000335 kPa and 0.00032 kPa and 0.000321 kPa
377.11 K	0.000413 kPa and 0.000405 kPa and 0.000383 kPa
379.2 K	0.000496 kPa and 0.000495 kPa and 0.00048 kPa
381.27 K	0.000611 kPa and 0.000592 kPa and 0.000579 kPa
383.12 K	0.000711 kPa and 0.000701 kPa and 0.000664 kPa
385.27 K	0.000863 kPa and 0.00082 kPa and 0.00081 kPa
387.2 K	0.001018 kPa and 0.001001 kPa and 0.000962 kPa
